Data as given in US6492365B1, “Microsomal triglyceride transfer protein” (Bristol-Myers Squibb Company, priority 1992, dated 2002).
Where a name gives a salt, the structure may show the parent alone.

Test system: apoB secretion from HepG2 cells
Experiment: ApoB secretion from HepG2 cells (ELISA of culture media)
Type: cell-based, human
Protocol: (§1) HepG2 cells were treated with compound A at the indicated doses for 16 hours. The concentration in the cell culture media of apoB, apoAI and HSA after the incubation period was measured with the appropriate ELISA assay and normalized to total cell protein. The data shown are expressed as a percentage of the control (DMSO only).
as §1, with “compound B” for “compound A”
The human hepatoblastoma cell line, HepG2, was obtained from the American Type Culture Collection (Rockville, Md.; ATCC accession no. 8065). […]
Experiments to measure the effects of compounds A and B on protein secretion were carried out in 48-well plates. […] Before commencement of drug treatment, culture medium was removed, the cells washed once with PBS and 1 mL of fresh medium was added quantitatively. […] The cells were homogenized by trituration with a 1 mL micropipettor, and protein was measured using the Coomassie reagent (Pierce Chemical Co, Rockford, Ill.) as described by the manufacturer. […]

O=C1c2ccccc2CN1C1CCN(CCC(c2ccccc2)c2ccccc2)CC1 [compound A, 2-[1-(3,3-diphenylpropyl)-4-piperdinyl]-2,3-dihydro-3-oxo-1H-isoindole hydrochloride]
IC50 (Homo sapiens, 16-hour incubation, 0.156 to 20 μM, read-out: IC50 for inhibition of apoB secretion): 5 µM

COc1ccccc1N1CCN(CC2CC(=O)c3ccc(F)cc3C2)CC1 (centres unmarked) [compound B, 1-[3-(6-fluoro-1-tetralanyl)methyl]-4-O-methoxyphenyl piperazine]
secretion of lipoproteins that contain apoB (result in words): inhibited
